Test results: patent US20240182406A1, “COMPOUNDS AS SOLUBLE EPOXIDE HYDROLASE INHIBITORS” (UNIVERSITAT DE BARCELONA, priority 2021, published 2024)
Marks after values point to notes of the source that are not given here.

Assays:
mouse primary microglia = test: AβO-induced microglial activation, qPCR; type: cell-based; settings: pretreated with compound followed by Aβ1-42 (2 μM)
Method: To validate the inhibition efficacy of sEH, 3×10^5 microglia isolated from CD1 mouse brain were seeded onto 12 well culture plates in microglia medium.
Total RNAs were isolated from microglia or astrocyte using a Quick-RNA kit (Zymo Research, Inc., Irvine, CA, USA). The concentration of total RNAs was measured using a UV-Vis spectrophotometer (NanoDrop8000, Thermo Fisher Scientific Inc., Wilmington, DE, USA) and reverse-transcribed with a high-capacity cDNA reverse transcription kit (Applied Biosystems, Carlsbad, CA, USA). Gene expression was quantified by Fast SYBR green real-time PCR on a Quantstudio 5 system (Applied Biosystems). The primer sequences are listed below (Table 8). Data were analyzed according to the comparative Ct method. Glyceraldehyde 3-phosphate dehydrogenase (Gapdh) was used to normalize the amounts of cDNA within each sample.

CD1 mice = test: Seizure assay (pentylenetetrazole, PTZ test); type: in vivo, mouse
Method: Test compounds were dissolved in 20% hydroxypropyl-beta-cyclodextrin and concentration was calculated according to the animal weigh to reach the precise dose. Animals were housed in standard care facilities with a 12 hours light-dark cycle with free access to water and food.
To investigate the ability of compounds to cross the blood-brain barrier (BBB), a standard acute test involving the administration of pro-convulsant pentylenetetrazole (PTZ) was employed [Inceoglu et al, PLoS ONE, 2013, 8(12), e80922; WO 2015/148954 A1]. In the test, PTZ was administered at 85 mg/Kg by subcutaneous route, time to onset of first clonic seizure, average of clonic seizures, tonic seizure latency and lethality were monitored for 30 min. Vehicles or compounds were administered by gavage at 5 mg/kg 1 h prior to pro-convulsant.

GFAP = test: Western blot of hippocampus, neuroinflammation marker GFAP (5×FAD mice); type: in vivo, mouse; settings: 5×FAD male mice, 5 mg/kg, 4 weeks, Arbitrary Units, control as 100%
Description: (§1) 5×FAD (tg6799) is an early-onset mouse transgenic model which overexpress mutant human APP(695) with the Swedish (K670N, M671L), Florida (I716V) and London (V717I) Familial Alzheimer's Disease (FAD) mutations along with human PS1 harbouring two FAD mutations (M146L and L286V). The Tg6799 line used is the original hybrid B6SJL background, and this hybrid B6SJL strain is used as a control of healthy animals. The mouse Thy1 promoter regulates both transgenes to drive overexpression in the brain. 5×FAD mice recapitulate major features of AD amyloid pathology and is a useful model of intraneuronal Abeta-42 induced neurodegeneration with amyloid increase brain content and amyloid plaque formation and tau hyperphosphorylation (J Neurosci. 2006, 26(40), 10129-10140).
(§2) The test compound was dissolved in 1.8% hydroxypropyl-beta-cyclodextrin and concentration in water was calculated according to the weekly animal consumption to reach the precise daily dose. A freshly made weekly replaces the drinking solution. The amount of water that the animals drink was monitored weekly, by the cage, and drug concentration was adjusted every week to reach the precise dose. […]
(§3) Afterwards, membranes were washed and incubated with secondary antibodies for 1 h at room temperature. […] Immunodetection of GADPH routinely monitored protein loading. […]

TREM2 = test: Western blot of hippocampus, neuroinflammation marker TREM2 (5×FAD mice); type: in vivo, mouse; settings: 5×FAD male mice, 5 mg/kg, 4 weeks, Arbitrary Units, control as 100%
Description: as §1, §2, §3

5×FAD mice = test: Novel Object Recognition Test (NORT) in 5×FAD mouse model of Alzheimer disease; type: in vivo; settings: 5×FAD model, 5 mg/kg, treated vs control groups
Description: 5×FAD (tg6799) is an early-onset mouse transgenic model which overexpress mutant human APP(695) with the Swedish (K670N, M671L), Florida (I716V) and London (V717I) Familial Alzheimer's Disease (FAD) mutations along with human PS1 harbouring two FAD mutations (M146L and L286V). The Tg6799 line used is the original hybrid B6SJL background, and this hybrid B6SJL strain is used as a control of healthy animals. The mouse Thy1 promoter regulates both transgenes to drive overexpression in the brain. […]
as §2, with “A freshly made weekly replaces the drinking solution.” left out
Mice were placed in a 90°, two-arm, 25-cm-long, 20-cm-high, 5-cm-wide black maze. […] During this second trial, objects A and B were placed in the maze and the behaviour of the mice was recorded with a camera. The time that the mice explored the New object (TN) and Time that the mice explored the Old object […] (TO) were measured. […]

[1] = 5 mg/kg by gavage 1 h prior to PTZ 85 mg/Kg s.c., monitored 30 min
[2] = listed as compound of example 2

O=C(NC12CC3CC(Cl)(CC(C1)c1ccccc13)C2)N[C@H]1CC[C@H](Oc2ccc(C(=O)O)cc2)CC1 [Example 2, 4-[((1r,4r)-4-(3-(9-chloro-5,6,8,9,10,11-hexahydro-7H-5,9:7,11-dimethanobenzo[9]annulen-7-yl)ureido)cyclohexyl)oxy]benzoic acid]
mRNA for pro-inflammatory cytokines II-6 and II-1b (mouse primary microglia): prevented | Average clonic seizure (CD1 mice; [1]): 1.25 | Mean time to clonic seizure latency (CD1 mice; [1]): 1006.5 s | Protected from tonic/total (Mortality) (CD1 mice; [1]): 6/6**** | Mean time to tonic seizure (CD1 mice; 5 mg/kg by gavage 1 h prior to PTZ 85 mg/Kg s.c., animals without tonic seizure within 30 min excluded): 0.00 s | Mean time to tonic seizure in seconds (CD1 mice; 5 mg/kg by gavage 1 h prior to PTZ 85 mg/Kg s.c., animals without tonic seizure within 30 min excluded, listed as compound of Example 2): delay onset of tonic seizures | protection from convulsions and associated lethality (CD1 mice; PTZ test, 5 mg/kg by gavage): protect mice from convulsions and associated lethality | GFAP protein levels (GFAP; listed as Cpd. Ex. 2): 125.85 ± 9.21*^ | GFAP protein levels (GFAP; [2]): significant diminution in the protein levels | TREM2 protein levels (TREM2; listed as Cpd. Ex. 2): 118.42 ± 6.53*^ | TREM2 protein levels (TREM2; [2]): significant diminution in the protein levels | memory deficits by NORT (5×FAD mice): reduced memory deficits
